# Reference: BindingDB's records for doi:10.1021/acs.jmedchem.8b00642 (Korea Institute of Science and Technology, 2018)
# Target: 5-hydroxytryptamine receptor 7 (Homo sapiens, UniProt P34969)
# Experiment: Displacement of [3H]LSD from human 5-HT7 receptor expressed in HEK cell membranes after 1.5 hrs by microbeta scintillation counting method
# Sequence of 5-hydroxytryptamine receptor 7 (P34969 whole entry): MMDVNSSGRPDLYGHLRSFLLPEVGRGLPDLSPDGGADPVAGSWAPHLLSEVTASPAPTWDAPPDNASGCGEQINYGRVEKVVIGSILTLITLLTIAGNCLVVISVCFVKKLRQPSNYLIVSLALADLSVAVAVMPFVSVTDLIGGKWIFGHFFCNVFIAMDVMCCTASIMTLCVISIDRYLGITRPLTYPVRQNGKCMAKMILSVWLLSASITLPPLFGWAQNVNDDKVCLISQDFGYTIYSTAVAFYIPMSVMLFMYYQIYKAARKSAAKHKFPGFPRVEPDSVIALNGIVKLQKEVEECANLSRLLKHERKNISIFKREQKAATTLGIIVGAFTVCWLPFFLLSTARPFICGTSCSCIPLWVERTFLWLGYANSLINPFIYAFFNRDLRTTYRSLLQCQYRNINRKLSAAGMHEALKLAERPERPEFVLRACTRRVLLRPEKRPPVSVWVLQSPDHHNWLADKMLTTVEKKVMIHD
smiles,measurement,value
Clc1ccc(-c2n[nH]c3c2CCNCC3)cc1,Ki,32 nM
